Data as given in US10457672B2, “γ-diketones as Wnt/β-catenin signaling pathway activators” (Samumed, LLC, priority 2013, dated 2019).

Tested on: Wnt/β-catenin signaling pathway (Wnt-responsive SP5 promoter luciferase reporter in SW480 cells)
Test: Wnt reporter (SP5 promoter-firefly luciferase) activation assay in SW480 cells
Assay type: cell-based
Conditions: Homo sapiens; SW480 colon cancer cells with SP5 promoter luciferase reporter; 24 h after compound addition; normalized to DMSO; concentration at half maximal activation
Method: Compounds that enhance the Wnt activity, or Activators, were assayed as follows. Reporter cell lines were generated by stably transducing cells of colon cancer cell lines (with a lentiviral construct that included a Wnt-responsive promoter driving expression of the firefly luciferase gene).
Lentiviral constructs were made in which the SP5 promoter, a promoter having eight TCF/LEF binding sites derived from the SP5 promoter, was linked upstream of the firefly luciferase gene. The lentiviral constructs also included a hygromycin resistance gene as a selectable marker. The SP5 promoter construct was used to transduce SW480 cells, a colon cancer cell line having a mutated APC gene that generates a truncated APC protein, leading to de-regulated accumulation of β-catenin.
Cultured SW480 cells bearing a reporter construct were distributed at approximately 10,000 cells per well into 384- or 96-well multiwell plates. Compounds from a small molecule compound library were then added to the wells in half-log dilutions using a maximum concentration of three or ten micromolar. A series of control wells for each cell type received only buffer and compound solvent DMSO. Twenty-four hours after the addition of compound, reporter activity for luciferase was assayed, for example, by addition of the BrightGlo luminescence reagent (Promega) and the Victor3 plate reader (Perkin Elmer). Readings were normalized to DMSO only treated cells, and any activities above DMSO were considered activation. Compounds were considered activators if reporter activities were 2× fold or greater than DMSO. EC50 is the concentration at half maximal activation.

SMILES | EC50 [nM]
O=C(CCC(=O)c1ccccc1C(F)(F)F)c1ccc2[nH]ccc2c1 [Compound 249, 1-(1H-Indol-5-yl)-4-(2-(trifluoromethyl)phenyl)butane-1,4-dione] | 4
O=C(CCC(=O)c1ccccc1F)c1ccc2[nH]ccc2c1 [Compound 252, 1-(2-Fluorophenyl)-4-(1H-indol-5-yl)butane-1,4-dione] | 1
COc1ccccc1C(=O)CCC(=O)c1ccc2[nH]ccc2c1 [Compound 255, 1-(1H-Indol-5-yl)-4-(2-methoxyphenyl)butane-1,4-dione] | 17
O=C(CCC(=O)c1ccccn1)c1ccc2[nH]ccc2c1 [Compound 258, 1-(1H-Indol-5-yl)-4-(pyridin-2-yl)butane-1,4-dione] | 16
O=C(CCC(=O)c1ccc2[nH]ccc2c1)c1ccccc1 [Compound 261, 1-(1H-indol-5-yl)-4-phenylbutane-1,4-dione] | 42
O=C(CCC(=O)c1ccc2[nH]cnc2c1)c1cccc(C(F)(F)F)c1 [Compound 263, 1-(1H-Benzo[d]imidazol-5-yl)-4-(3-(trifluoromethyl)phenyl)butane-1,4-dione] | > 10000
O=C(CCC(=O)c1ccccc1F)c1ccc2[nH]cnc2c1 [Compound 265, 1-(1H-Benzo[d]imidazol-5-yl)-4-(2-fluorophenyl)butane-1,4-dione] | 201
COc1cccc(C(=O)CCC(=O)c2ccc3[nH]cnc3c2)c1 [Compound 269, 1-(1H-Benzo[d]imidazol-5-yl)-4-(3-methoxyphenyl)butane-1,4-dione] | > 10000
O=C(CCC(=O)c1ccc2[nH]cnc2c1)c1ccccc1 [Compound 274, 1-(1H-Benzo[d]imidazol-5-yl)-4-phenylbutane-1,4-dione] | 6800
O=C(CCC(=O)c1ccccc1C(F)(F)F)c1ccc2occc2c1 [Compound 275, 1-(Benzofuran-5-yl)-4-(2-(trifluoromethyl)phenyl)butane-1,4-dione] | 9
O=C(CCC(=O)c1ccccc1F)c1ccc2occc2c1 [Compound 278, 1-(Benzofuran-5-yl)-4-(2-fluorophenyl)butane-1,4-dione] | 18
COc1ccccc1C(=O)CCC(=O)c1ccc2occc2c1 [Compound 281, 1-(Benzofuran-5-yl)-4-(2-methoxyphenyl)butane-1,4-dione] | 61
O=C(CCC(=O)c1ccc2occc2c1)c1ccccc1 [Compound 287, 1-(Benzofuran-5-yl)-4-phenylbutane-1,4-dione] | 87
O=C(CCC(=O)c1ccccc1C(F)(F)F)c1ccc2ocnc2c1 [Compound 288, 1-(Benzo[d]oxazol-5-yl)-4-(2-(trifluoromethyl)phenyl)butane-1,4-dione] | > 10000
O=C(CCC(=O)c1ccccc1F)c1ccc2ocnc2c1 [Compound 291, 1-(Benzo[d]oxazol-5-yl)-4-(2-fluorophenyl)butane-1,4-dione] | 125
O=C(CCC(=O)c1ccc2ocnc2c1)c1cccc(F)c1 [Compound 292, 1-(Benzo[d]oxazol-5-yl)-4-(3-fluorophenyl)butane-1,4-dione] | 595
COc1ccccc1C(=O)CCC(=O)c1ccc2ocnc2c1 [Compound 294, 1-(Benzo[d]oxazol-5-yl)-4-(2-methoxyphenyl)butane-1,4-dione] | 1720
O=C(CCC(=O)c1ccc2ocnc2c1)c1ccccc1 [Compound 300, 1-(Benzo[d]oxazol-5-yl)-4-phenylbutane-1,4-dione] | 18
O=C(CCC(=O)c1ccccc1C(F)(F)F)c1ccc2sccc2c1 [Compound 301, 1-(Benzo[b]thiophen-5-yl)-4-(2-(trifluoromethyl)phenyl)butane-1,4-dione] | 39
COc1ccccc1C(=O)CCC(=O)c1ccc2sccc2c1 [Compound 307, 1-(Benzo[b]thiophen-5-yl)-4-(2-methoxyphenyl)butane-1,4-dione] | 55
O=C(CCC(=O)c1ccccn1)c1ccc2sccc2c1 [Compound 310, 1-(Benzo[b]thiophen-5-yl)-4-(pyridin-2-yl)butane-1,4-dione] | 68
